According to publication PMC4398321, “Epoxide based inhibitors of the hepatitis C virus non-structural 2 autoprotease” (Antiviral Research, 2015):

How the values were obtained:
[1] = biological target: T1, JFH1 NS2–3 (NS2 autoprotease) (Hepatitis C virus genotype 2a, UniProt Q99IB8); set-up: method as in Pieroni et al., 1997; Thibeault et al., 2001; settings: ref Pieroni et al., 1997; Thibeault et al., 2001; cited from earlier work
T1 construct: (JFH1 polyprotein residues 906–1209, J4 residues 904–1206); His tag (N); made in house; host or cells: E. coli BL21 (DE3) pLysS, pET23a
T1 sequence (Q99IB8 906-1209): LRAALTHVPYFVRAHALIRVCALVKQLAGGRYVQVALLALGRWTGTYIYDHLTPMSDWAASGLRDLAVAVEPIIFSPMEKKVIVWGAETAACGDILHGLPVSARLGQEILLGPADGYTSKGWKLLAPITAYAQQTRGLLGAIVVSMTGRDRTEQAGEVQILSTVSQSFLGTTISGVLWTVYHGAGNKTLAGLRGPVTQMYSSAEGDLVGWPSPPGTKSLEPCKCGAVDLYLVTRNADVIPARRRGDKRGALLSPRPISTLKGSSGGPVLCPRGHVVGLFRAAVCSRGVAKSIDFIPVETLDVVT

[2] = biological target: T1, JFH1 NS2–3 (NS2 autoprotease); experiment: NS2–3 auto-processing (refolding) assay, JFH1; assay type: biochemical, Hepatitis C virus genotype 2a isolate JFH1; settings: for EC50: JFH1 NS2–3 refolding reaction, 10-point dose response, NS3-FLAG product quantified by western blot
Procedure: NS2–3 at 20 μM in 6 M GdnHCl was diluted 1:100 into Refolding buffer (30% glycerol, 0.5% CHAPS, 250 mM NaCl, 3 mM cysteine, 50 μM ZnCl2, 10 mM DTT, 50 mM HEPES–NaOH, pH 7.0) and incubated 16 h RT. Compounds (133 × final concentration in DMSO) were diluted into Refolding buffer before the addition of NS2–3 to yield required final concentrations. Reactions were halted by the addition of ¼ volume 4 × Laemmli buffer (200 mM Tris–HCl pH 6.8, 40% glycerol, 8% SDS, 0.08% bromophenol blue, 20 mM DTT) and analysed by 15% SDS–PAGE and western blot using M2 anti-FLAG monoclonal antibody (Sigma Aldrich) followed by IRDye 680RD Donkey anti-Mouse secondary (LI-COR Biosciences). Imaging and analysis was performed using Odyssey imager (LI-COR Biosciences). Intensity of the 20 kDa proteolysis product (NS3-FLAG) was quantified to calculate 50% effective concentration (EC50) using Prism 6 (GraphPad).
To assess the ability of a small molecule to inhibit NS2 protease activity, an in vitro auto-processing assay was employed. A NS2–NS3 precursor protein (NS2–3) comprising the catalytic C-terminal domain of NS2 and the N-terminal protease domain of NS3 (JFH1 polyprotein residues 906–1209, J4 residues 904–1206) flanked by an N-terminal His tag and C-terminal FLAG tag was bacterially expressed and purified from inclusion bodies under denaturing conditions by immobilised metal ion affinity chromatography (IMAC). Upon dilution into Refolding buffer, NS2–3 forms significant secondary structure ([Foster et al., 2010]) allowing the autoprotease to become active. This can be monitored by western blot analysis of NS2–3 refolding reactions with an anti-FLAG antibody to reveal 35 kDa precursor NS2–3-FLAG and 20 kDa NS3-FLAG, one of the proteolysis products. Quantification of the proteolysis product was used as a relative measure of NS2 autoprotease activity.

[3] = Cell viability endpoint assay (Thiazolyl Blue Tetrazolium Bromide); assay type: cell-based; settings: human, Huh7 cells (hepatoma cell line); 72 h incubation, 11-point dose response
Procedure: (§1) Cellular metabolism was quantified by 2 h incubation in 1 mM Thiazolyl Blue Tetrazolium Bromide (Sigma Aldrich) before crystals were suspended in 100 μl DMSO and absorbance at 570 nm measured using an infinite F50 platereader (Tecan). Data was normalised to DMSO control. CC50 was calculated using Prism 6 (GraphPad).
(§2) In other systems, the requirement of epoxide-based inhibitors to form a transient interaction with the protease before becoming covalently linked allows them greater selectivity and makes them more amenable to in vivo applications ([Powers et al., 2002]). To explore the potential for bis-amido based epoxide warheads to exert an inhibitory effect within a HCV model system, compounds 1–10 and cerulenin were tested for cytotoxic effects by calculating CC50 from 72 h incubation in a hepatoma cell line capable of supporting HCV replication (Supplementary Fig. 2). Of the compounds showing significant activity in vitro only 1 and 7 exerted no significant cytotoxicity up to 100 μM (Table 1).

Huh7 cells = experiment: as above; assay type: cell-based; settings: 72 h incubation, 11-point dose response
Procedure: as §1, §2

SGR-JFH1-NS3-5B = experiment: SGR firefly luciferase assay, NS2-independent JFH1 replicon; assay type: cell-based, Hepatitis C virus genotype 2a isolate JFH1; settings: Telaprevir 150 nM, 48 h
Procedure: (§3) Stable cell lines harbouring SGR (Supplementary material) were maintained in Dulbecco’s modified Eagle’s medium (DMEM; Sigma) supplemented with 10% foetal bovine serum (FBS), 100 IU penicillin ml^−1, 100 μg streptomycin ml^−1, 1% non-essential amino acids and 300 μg/ml G418 (Sigma) in a humidified incubator at 37 °C in 5% CO2. Cells were seeded at a density of 2 × 10^4 cells/well in a 96 well plate. After 16 h media was removed and replaced with media supplemented with the indicated concentrations of compounds with standard DMSO at 0.25%. Plates were incubated in the absence of G418 for a further 48 h.
(§4) Luciferase activity was quantified by addition of 30 μl Passive Lysis Buffer (PLB: Promega) and addition of 40 μl LarI reagent (Promega) using a BMG Labtech plate reader with light emission recorded over 6 s. Data was normalised to DMSO control. Statistical significance was determined using the Student’s t test. […]
(§5) Constructs for HCV SGRs of the genotype 1b Con1 (BM4-5) and genotype 2a JFH1 isolates containing a firefly luciferase – neomycin phosphotransferase fusion protein (ffLuc - NPT) have been previously reported (Wyles et al., 2009, Wyles et al., 2007), into which the relevant NS2 coding sequence was introduced. […] Transcripts were purified by phenol/chloroform extraction and quantified by absorbance at 260 nm. […]

SGR-JFH1-NS2-5B = experiment: SGR firefly luciferase assay, NS2-dependent JFH1 replicon; assay type: cell-based, Hepatitis C virus genotype 2a isolate JFH1; settings: Telaprevir 150 nM, 48 h
Procedure: as §3, §4, §5

[4] = system: SGR-JFH1-NS3-5B cell line; experiment: Cellular metabolism of SGR-JFH1-NS3-5B cell line; assay type: cell-based; settings: Telaprevir 150 nM, 48 h
Procedure: as §3, §1

[5] = system: SGR-JFH1-NS2-5B cell line; experiment: Cellular metabolism of SGR-JFH1-NS2-5B cell line; assay type: cell-based; settings: Telaprevir 150 nM, 48 h
Procedure: as §3, §1

**Q.** Which results are given for `CC(C)C[C@H](NC(=O)[C@H]1O[C@@H]1C(=O)O)C(=O)NCCCCN=C(N)N` [Compound E64]?
**A.** Activity against the NS2 autoprotease [1]: inactive; Inhibition of NS2 autoprotease ([2]; E64 300 μM): not inhibited

**Q.** For `C/C=C/C/C=C/CCC(=O)[C@H]1O[C@H]1C(N)=O` [Cerulenin], which EC50 [2] is on record?
**A.** > 300 µM

**Q.** And the “Activity against the NS2 autoprotease (in words)” value ([2]; JFH1 NS2–3 refolding, dose response)?
**A.** no activity

**Q.** And the CC50 at 72 h [3]?
**A.** 31.9 µM

**Q.** Which results are given for `Cc1ccc(S(=O)(=O)N[C@@H](Cc2ccccc2)C(=O)CCl)cc1` [TPCK, Tosyl phenylalanine chloromethyl ketone]?
**A.** EC50 [2]: 15.3 µM; CC50 (Huh7 cells): 3.3 µM

**Q.** For `O=C(O)CN(CCN(CC(=O)O)CC(=O)O)CC(=O)O` [EDTA], which “Inhibition of NS2 autoprotease activity” value ([2]; EDTA 10 mM) is on record?
**A.** inhibited

**Q.** Which results are given for `CCC[C@H](NC(=O)[C@@H]1[C@H]2CCC[C@H]2CN1C(=O)[C@@H](NC(=O)[C@@H](NC(=O)c1cnccn1)C1CCCCC1)C(C)(C)C)C(=O)C(=O)NC1CC1` [Telaprevir]?
**A.** Luciferase activity (SGR-JFH1-NS3-5B): comparable reduction; Luciferase activity (SGR-JFH1-NS2-5B): comparable reduction; Cellular metabolism [4]: no effect; Cellular metabolism [5]: no effect
